Legend:
filaggrin (FLG) = test: Skin filaggrin (FLG) ELISA; type: in vivo, mouse; settings: n = 10; for FLG level in dorsal skin: mean ± SD
Procedure: To induce experimental AD-like skin lesions in mouse, we used cutaneous Biostir-AD for challenging NC/Nga mice, according to the manufacturer’s instructions. After 1 week of acclimation, AD was induced. Briefly, the dorsal part of each mouse was shaved with an electric shaver, and then the remaining hair was removed using a depilatory cream. Twice weekly for three weeks, growing hair was shaved with the electric shaver, followed by application of 150 μL of 4% sodium dodecyl sulfate to the treated area (barrier disruption). Biostir-AD (200 mg/mouse) was applied 3 h after barrier disruption. Fifty mice were divided into five groups of five mice per cage (n = 10 per group): group 1, control (Biostir-AD + vehicle (distilled water only)); group 2, 0.1% tacrolimus (Biostir-AD + Protopic (positive control)); group 3, 0.004% Ac-RLYE (Biostir-AD + 0.004% Ac-RLYE in distilled water); group 4, 0.02% Ac-RLYE (Biostir-AD + 0.02% Ac-RLYE in distilled water); and group 5, 0.1% Ac-RLYE (Biostir-AD + 0.1% Ac-RLYE in distilled water). Ac-RLYE or 0.1% tacrolimus (100 μL/mouse) was applied daily for 4 weeks. The concentration of Ac-RLYE used in the present study was determined based on the results of previous preliminary experiments (unpublished data). The mice were sacrificed after 4 weeks of Ac-RLYE treatment (Figure 2A, on Day 48). The dorsal skin was collected from mice after 4 weeks of Ac-RLYE or tacrolimus treatment and stored at −80 °C until use. The dorsal skin tissues were homogenized in RIPA lysis buffer containing a protease inhibitor and a phosphatase inhibitor and centrifuged at 13,000 rpm for 10 min at 4 °C. The supernatant was collected for a protein assay using a Pierce™ BCA Protein Assay Kit (Thermo Fisher Scientific, Inc., Waltham, MA, USA). The level of FLG in mouse skin tissue was quantified using an ELISA kit (MyBioSource, Inc., San Diego, CA, USA) in accordance with the manufacturer’s instructions.

NC/Nga mice [1] = test: Dermatitis severity score in HDM (Biostir-AD)-induced AD-like skin lesions; type: in vivo; settings: topical 100 μL/mouse daily for 4 weeks, Day 48, mean ± SD, n = 10
Procedure: (§1) To induce experimental AD-like skin lesions in mouse, we used cutaneous Biostir-AD for challenging NC/Nga mice, according to the manufacturer’s instructions. After 1 week of acclimation, AD was induced. Briefly, the dorsal part of each mouse was shaved with an electric shaver, and then the remaining hair was removed using a depilatory cream. Twice weekly for three weeks, growing hair was shaved with the electric shaver, followed by application of 150 μL of 4% sodium dodecyl sulfate to the treated area (barrier disruption). Biostir-AD (200 mg/mouse) was applied 3 h after barrier disruption. Fifty mice were divided into five groups of five mice per cage (n = 10 per group): group 1, control (Biostir-AD + vehicle (distilled water only)); group 2, 0.1% tacrolimus (Biostir-AD + Protopic (positive control)); group 3, 0.004% Ac-RLYE (Biostir-AD + 0.004% Ac-RLYE in distilled water); group 4, 0.02% Ac-RLYE (Biostir-AD + 0.02% Ac-RLYE in distilled water); and group 5, 0.1% Ac-RLYE (Biostir-AD + 0.1% Ac-RLYE in distilled water). Ac-RLYE or 0.1% tacrolimus (100 μL/mouse) was applied daily for 4 weeks. The concentration of Ac-RLYE used in the present study was determined based on the results of previous preliminary experiments (unpublished data). The mice were sacrificed after 4 weeks of Ac-RLYE treatment (Figure 2A, on Day 48). The severity of the dermatitis was measured macroscopically and scored once a week by using a previously established method based on the clinical signs and symptoms of AD, namely, erythema (hemorrhage), edema, excoriation (erosion), and scaling (dryness). The total dermatitis severity score was defined as the sum of the component scores (0, no symptoms; 1, mild; 2, moderate; 3, severe) for each mouse, ranging from 0 to 12.

NC/Nga mice [2] = test: Ear thickness in HDM-induced AD model; type: in vivo, mouse; settings: n = 10
Procedure: as §1, with “The mice were sacrificed after 4 weeks of Ac-RLYE treatment (Figure 2A, on Day 48). The severity of the dermatitis was measured macroscopically and scored once a week by using a previously established method based on the clinical signs and symptoms of AD, namely, erythema (hemorrhage), edema, excoriation (erosion), and scaling (dryness). The total dermatitis severity score was defined as the sum of the component scores (0, no symptoms; 1, mild; 2, moderate; 3, severe) for each mouse, ranging from 0 to 12.” left out
Ear thickness was measured on the first day of Ac-RLYE application and then once a week using calipers.

NC/Nga mice [3] = test: Mast cell infiltration (toluidine blue staining); type: in vivo, mouse; settings: Day 48, versus vehicle-treated group, n = 10
Procedure: (§2) To induce experimental AD-like skin lesions in mouse, we used cutaneous Biostir-AD for challenging NC/Nga mice, according to the manufacturer’s instructions. After 1 week of acclimation, AD was induced. Briefly, the dorsal part of each mouse was shaved with an electric shaver, and then the remaining hair was removed using a depilatory cream. Twice weekly for three weeks, growing hair was shaved with the electric shaver, followed by application of 150 μL of 4% sodium dodecyl sulfate to the treated area (barrier disruption). Biostir-AD (200 mg/mouse) was applied 3 h after barrier disruption. […] The concentration of Ac-RLYE used in the present study was determined based on the results of previous preliminary experiments (unpublished data). […]
(§3) The dorsal skin tissues were isolated, fixed in 10% formalin immediately after excision from the mice, and embedded in paraffin. […] Skin samples were observed and measured with an Olympus BX53 light microscope (Olympus Corporation, Tokyo, Japan). From the histopathological findings, the severity of skin manifestations was assessed on the epidermis (hypertrophy, hyperkeratosis, and infiltration by inflammatory cells) and on the dermis (infiltration by inflammatory cells) and was expressed as the sum of the individual score grades from 0 to 3 (0, no symptoms; 1, mild; 2, moderate; 3, severe), as described previously. […]

HUVECs = test: Immunofluorescence of ZO-1 and VE-cadherin junctions in VEGF-A-stimulated HUVECs; type: cell-based, human; settings: HUVECs pre-treated 30 min with 0.15 nM Ac-RLYE, then 10 ng/mL VEGF-A for 1 h; confocal immunofluorescence, Image J; n = 3
Procedure: Figure 1 Ac-RLYE inhibits VEGF-A-induced junctional integrity loss in HUVECs. Cells were pre-treated for 30 min with Ac-RLYE (0.15 nM) followed by stimulation with 10 ng/mL VEGF-A (V) for 1 h. (A) Confocal images of ZO-1 and VE-cadherin. (B) Quantification of ZO-1 and VE-cadherin at contact sites between endothelial cells (n = 3). Data are represented as mean ± SD values. *** p < 0.001.
Collagenase type II (Worthington Biochemical Corporation, Lakewood, NJ) was used to isolate human umbilical vein endothelial cells (HUVECs) from umbilical cord veins. The cells were cultured on gelatin-coated plates in Medium 199 supplemented with 20% FBS, 100 U/mL penicillin–streptomycin, 3 ng/mL bFGF, and 5 U/mL heparin. Trypsinization was used to collect the cells (up to passage 7), which were then used for assays.
HUVECs were grown as a monolayer on 2% gelatin-coated cover glasses and cultured in M199 medium containing 1% FBS. The cells were pretreated with 0.15 nM Ac-RLYE for 30 min and stimulated with 10 ng/mL VEGF-A for 1 h. […] The levels of VE-cadherin and ZO-1 were quantified using Image J software.

IgE = test: Plasma IgE ELISA; type: in vivo, mouse; settings: Day 48, topical application, versus vehicle-treated group, n = 10
Procedure: as §2
The blood samples were drawn from mice, and the plasma was separated by centrifugation at 10,000× g for 10 min at 4 °C and stored at −80 °C until tested. The plasma level of IgE was measured by ELISA according to the manufacturer’s instructions (Mouse IgE ELISA Kit, Abcam, Cambridge, UK).

NC/Nga mice [4] = test: Differential cell counting of blood; type: in vivo, mouse; settings: differential counting at Day 48; versus vehicle-treated control; n = 10
Procedure: as §1, with “48).” for “48). The severity of the dermatitis was measured macroscopically and scored once a week by using a previously established method based on the clinical signs and symptoms of AD, namely, erythema (hemorrhage), edema, excoriation (erosion), and scaling (dryness). The total dermatitis severity score was defined as the sum of the component scores (0, no symptoms; 1, mild; 2, moderate; 3, severe) for each mouse, ranging from 0 to 12.”
Whole blood samples were collected from the mice and used for analysis. […]

NC/Nga mice [5] = test: Histological analysis (H&E) of AD-like skin lesions; type: in vivo, mouse; settings: n = 10
Procedure: as §2, §3

[6] = test system: Th1, Th2 and Th17 cytokines; test: qRT-PCR of cytokine mRNA in AD-like skin lesions; type: in vivo, mouse; settings: skin at Day 48, normalized to GAPDH, versus vehicle, n = 10
Procedure: as §1, with “48).” for “48). The severity of the dermatitis was measured macroscopically and scored once a week by using a previously established method based on the clinical signs and symptoms of AD, namely, erythema (hemorrhage), edema, excoriation (erosion), and scaling (dryness). The total dermatitis severity score was defined as the sum of the component scores (0, no symptoms; 1, mild; 2, moderate; 3, severe) for each mouse, ranging from 0 to 12.”
Both the ear and dorsal skin of each mouse were excised using a surgical knife, pooled, and used for RNA isolation. Total RNA was prepared using an RNA isolation kit (GeneAll® Hybrid-R™, GeneAll, Korea) following the manufacturer’s instructions. RNA was quantified using a BioTek Take3^TM Multi-Volume plate (Agilent BioTek Instruments, Winooski, VT, USA). An equal amount of total RNA was reverse-transcribed using ReverTra Ace™ qPCR RT Master Mix with gDNA Remover (Toyobo CO., LTD., Osaka, Japan) according to the manufacturer’s instructions. Real time-PCR was performed on a CFX96™ Touch Real-Time PCR System (Bio-Rad, Hercules, CA) using TB Green® Premix Ex Taq™ (Takara, Shiga, Japan). Quantification of the target gene expression was determined by the comparative […] method. The relative expression levels were determined by normalizing expression to glyceraldehyde 3-phosphate dehydrogenase (GAPDH). The level of each target gene was expressed as the relative fold change.

## C=CC[C@@H]1/C=C(\C)C[C@H](C)C[C@H](OC)[C@H]2O[C@@](O)(C(=O)C(=O)N3CCCC[C@H]3C(=O)O[C@H](/C(C)=C/[C@@H]3CC[C@@H](O)[C@H](OC)C3)[C@H](C)[C@@H](O)CC1=O)[C@H](C)C[C@@H]2OC [tacrolimus, reference compound]
Filaggrin (FLG); 0.1% tacrolimus ointment topical daily for 4 weeks
  FLG level in dorsal skin: 1444.8 ± 110.5 pg/mL
NC/Nga mice [1]; 0.1% tacrolimus ointment (Protopic)
  Dermatitis score (sum of erythema, edema, excoriation, scaling; 0-12): 4.5 ± 2.4

## N-acetyl-Arg-Leu-Tyr-Glu [Ac-RLYE]
NC/Nga mice [2]; doses above 0.02%, Day 48
  Effect on ear thickness compared with tacrolimus: slightly better than that of tacrolimus
NC/Nga mice [2]; topical 0.004-0.1% once daily for 4 weeks, dose-dependent, versus vehicle
  Increase in ear thickness after HDM: significantly attenuated
NC/Nga mice [3]
  Accumulation of mast cells in AD-like skin lesion: reduced
Filaggrin (FLG); 0.1% Ac-RLYE topical daily for 4 weeks
  FLG level in dorsal skin: 1469.4 ± 105.2 pg/mL
Filaggrin (FLG); Ac-RLYE groups 0.004-0.1%, dose-dependent
  Protein level of FLG versus vehicle-treated AD group: significantly restored
HUVECs
  VEGF-induced cellular junction disruption (ZO-1 and VE-cadherin at cell-cell contact sites): significantly attenuated
IgE
  Plasma IgE: significantly lowered
NC/Nga mice [4]
  Number of leukocytes, neutrophils and eosinophils in blood: dose-dependently lowered
NC/Nga mice [5]; Day 48, all Ac-RLYE-treated groups versus vehicle-treated HDM group
  Infiltration of inflammatory cells in epidermis and dermis: less infiltration
NC/Nga mice [5]; Day 48, versus vehicle-treated HDM group
  Scores of hypertrophy and hyperkeratosis in epidermis: decreased
NC/Nga mice [1]; 0.004% in distilled water
  Dermatitis score (sum of erythema, edema, excoriation, scaling; 0-12): 7.4 ± 0.8
NC/Nga mice [1]; 0.02% in distilled water
  Dermatitis score (sum of erythema, edema, excoriation, scaling; 0-12): 5.8 ± 2.3
NC/Nga mice [1]; 0.1% in distilled water
  Dermatitis score (sum of erythema, edema, excoriation, scaling; 0-12): 4.5 ± 2.4
[6]
  Expression of IFN-γ: increased
  Expression of IL-17A (Th17 cytokine): suppressed
  Expression of Th1 cytokines IL-23 and TNF-α: inhibited
  mRNA levels of Th2-type cytokines IL-4, IL-13, IL-31 and Th2 chemokine CCL17: remarkably inhibited
